Results taken from patent US10251395B2, “Substituted furano-/thienocycloalkylamino-2-pyrimidine derivatives and use thereof for controlling undesired plant growth” (Bayer CropScience Aktiengesellschaft, priority 2015, dated 2019).

How the values were obtained:
Assay in all cases: Pre-emergence herbicidal effect
Format in all cases: in vivo
[1] = tested on: Veronica persica; conditions: scored visually after 3 weeks
From the text: (§1) Seeds of monocotyledonous and dicotyledonous weed plants and crop plants are laid out in wood-fiber pots in sandy loam and covered with soil. The compounds of the invention, formulated in the form of wettable powders (WP) or as emulsion concentrates (EC), are then applied to the surface of the covering soil as aqueous suspension or emulsion at a water application rate equating to 600 to 800 L/ha with addition of 0.2% wetting agent.
(§2) After the treatment, the pots are placed in a greenhouse and kept under good growth conditions for the trial plants. The damage to the test plants is scored visually after a test period of 3 weeks by comparison with untreated controls (herbicidal activity in percent (%): 100% activity=the plants have died, 0% activity=like control plants).
(§3) • ABUTH: Abutilon theophrasti ALOMY: Alopecurus myosuroides • AMARE: Amaranthus retroflexus AVEFA: Avena fatua • CYPES: Cyperus esculentus ECHCG: Echinochloa crus-galli • LOLMU: Lolium multiflorum MATIN: Matricaria inodora • PHBPU: Ipomoea purpurea POLCO: Polygonum convolvulus • SETVI: Setaria viridis STEME: Stellaria media • VERPE: Veronica persica VIOTR: Viola tricolor

[2] = tested on: Matricaria inodora; conditions: scored visually after 3 weeks
From the text: as §1, §2, §3

[3] = tested on: Stellaria media; conditions: scored visually after 3 weeks
From the text: as §1, §2, §3

[4] = tested on: Viola tricolor; conditions: scored visually after 3 weeks
From the text: as §1, §2, §3

[5] = tested on: Amaranthus retroflexus; conditions: scored visually after 3 weeks
From the text: as §1, §2, §3

[6] = tested on: Setaria viridis; conditions: Dosage 320 g/ha, scored visually after 3 weeks
From the text: as §1, §2, §3

[7] = tested on: Polygonum convolvulus; conditions: Dosage 320 g/ha, scored visually after 3 weeks
From the text: as §1, §2, §3

Row | SMILES | VERPE pre-emergence efficacy (herbicidal activity) ([1]; Dosage 80 g/ha) [%] | VERPE pre-emergence efficacy (herbicidal activity) ([1]; Dosage 320 g/ha) [%] | MATIN pre-emergence efficacy (herbicidal activity) ([2]; Dosage 80 g/ha) [%] | MATIN pre-emergence efficacy (herbicidal activity) ([2]; Dosage 320 g/ha) [%] | STEME pre-emergence efficacy (herbicidal activity) ([3]; Dosage 80 g/ha) [%] | STEME pre-emergence efficacy (herbicidal activity) ([3]; Dosage 320 g/ha) [%] | VIOTR pre-emergence efficacy (herbicidal activity) ([4]; Dosage 80 g/ha) [%] | VIOTR pre-emergence efficacy (herbicidal activity) ([4]; Dosage 320 g/ha) [%] | AMARE pre-emergence efficacy (herbicidal activity) ([5]; Dosage 320 g/ha) [%] | SETVI pre-emergence efficacy (herbicidal activity) [6] [%] | POLCO pre-emergence efficacy (herbicidal activity) [7] [%] | AMARE pre-emergence efficacy (herbicidal activity) ([5]; Dosage 80 g/ha) [%]
1 | Cc1cc2c(s1)CCCC2Nc1ncc(-c2cccc(Cl)c2)c(N)n1 (racemic) [compound 297] | 100 | 100 | 90 | 100 | 80 | 100 | 70 | 90 |  |  |  | 
2 | N=S(=O)(c1ccccc1)c1cnc(NC2CCCc3sccc32)nc1N (racemic) [compound 27] |  | 100 | 90 | 100 |  | 100 |  | 100 | 100 |  |  | 
3 | C/C(=N/O)c1cnc(NC2CCCc3sc(Cl)cc32)nc1C (racemic) [compound 259] |  | 100 |  |  |  | 100 |  | 80 |  | 100 |  | 
4 | Cc1cccc(-c2c(N)nc(NC3CCCc4sc(C)cc43)nc2C(F)F)c1 (racemic) [compound 304] | 100 | 100 |  |  |  | 100 |  |  |  |  | 60 | 
5 | CON=C(C)c1cnc(NC2CCCc3sccc32)nc1N (racemic) [compound 310] |  |  |  |  |  | 90 |  | 100 |  |  |  | 
6 | CC(=O)c1cnc(NC2CCCc3sc(Cl)cc32)nc1C (stereo not drawn) [compound 303] | 100 | 100 | 80 | 90 | 100 | 100 | 70 | 90 | 100 |  | 60 | 100
7 | COc1nc(NC2CCCc3sc(C)cc32)ncc1C(F)(F)F (racemic) [compound 10] |  | 100 |  |  |  | 100 |  |  | 80 |  |  | 
8 | Cc1sc(C)c2c1CCCC2Nc1ncc(C(F)(F)F)c(N)n1 (racemic) [compound 2] |  |  |  | 80 |  | 100 |  | 100 |  |  |  | 
9 | Cc1cc2c(s1)CCCC2Nc1nc(N)c(S(C)(=O)=O)c(C(C)F)n1 (racemic) [compound 318] |  | 100 |  | 90 |  | 100 |  | 100 | 100 | 100 | 100 | 
